# Reference: US7041486B1, “Enzyme having decolorizing activity and method for decolorizing dyes by using the same” (Meiji Seika Kaisha Ltd., priority 1999, dated 2006)
# Entries after “also recorded” stand apart in the source; their conditions may differ. Where two headings read alike, the source gives them in different places.
# Experiments:
# DyP [1] = test: Oxidation of model compounds by DyP (absorbance); assay type: biochemical, Geotrichum candidum Dec 1; conditions: for Oxidation rate: 2.79 nM DyP, 0.2 mM hydrogen peroxide, 25 mM citrate buffer, pH and initial concentration (mM) as in columns c2, c3, 470 nm or 465 nm; for Degradation by DyP (in words): model compounds of Table 2
# Experimental: As the model compounds, additionally, use was made of 2,6-dimethoxyphenol, guaiacol and veratryl alcohol.
# As to 2,6-dimethoxyphenol used as a model compound, alternatively, absorbance at 470 nm was calorimetrically measured, which emerged via oxidation.
# That is to say, a mixture solution of 2.79 nM DyP and 0.2 mM 2,6-dimethoxyphenol was reacted with 25 mM citrate buffer (pH 4.5) containing 0.2 mM hydrogen peroxide.
# As to guaiacol, 1 mM guaiacol was used in place of 0.2 mM 2,6-dimethoxyphenol, for absorbance measurement at 465 nm.
# DyP [2] = test: Assay of dye-degrading (decolorizing) activity of purified DyP; assay type: biochemical, Geotrichum candidum Dec 1; conditions: dyes of Table 1
# Experimental: The dye-degrading spectrum of the purified DyP was examined for nine types of dyes and three model compounds. The activity of the purified DyP to degrade these dyes or model compounds was assayed by measuring the degradation rates.
# As the dyes, use was made of Reactive blue 5, 19 and 114; AQ-1 and AQ-2; Reactive black 5, Reactive red 33, Reactive yellow 2, and Reactive blue 182.
# The dye-degrading activity was measured as follows.
# 0.2 to 0.4 mM aqueous hydrogen peroxide was added to a mixture solution of 3 mL of 25 mM citrate buffer (adjusted to the optimum pH for the degradation of each of the dyes) containing each dye at a fixed […] (30 to 120 ppm) and 1 mL of 1.86 nM DyP solution, to initiate the enzyme reaction. Reaction was performed at 30° C. for a fixed period of time, to assay the reaction rate.
# 1 U of the dye-degrading activity was defined as the activity to decolorize 1 μmole Reactive blue 5 or AQ-2 for one minute.
# DyP [3] = assay type: biochemical, Geotrichum candidum Dec 1; conditions: for Specific activity (%): 100 ppm Reactive blue 5, no addition = 100
# Excerpt: […], zinc, copper (divalent), potassium, iron (divalent) and sodium were concurrently present in a reaction solution comprising DyP and 100 ppm Reactive blue 5, so as to examine the effects of these metal ions on the relative activity of the DyP enzyme.
# [4] = Temperature stability of peroxidase (remaining activity after storage); assay type: physicochemical; conditions: 25 mM citrate buffer
# Experimental: After the inventive dye-degrading enzyme DyP was stored at a fixed temperature for a fixed period of time, the ratio of the remaining activity was subsequently evaluated. Specifically, a solution of the dye-degrading enzyme DyP in 25 mM citrate buffer was stored at 30° C. or 40° C. for 14 days.
# So as to compare the temperature stability with those of other peroxidases, solutions of individual enzymes in 25 mM citrate buffer were stored at 60° C. for 3 hours, by using a commercially available horse-radish peroxidase (manufactured by Wako Chemical Co., Ltd.; sometimes abbreviated as HRP hereinafter) as the control. Subsequently, the remaining enzyme activities were compared to each other.
# Isoelectric focusing = assay type: physicochemical; conditions: FIG. 2
# Experimental: Then, the isoelectric point of the inventive enzyme was measured. The isoelectric point was measured by isoelectric focusing.
# For measurement of isoelectric focusing, a low-pI calibration kit of Multiphor II 2-D for pH 2.5 to pH 6.5, manufactured by Pharmacia, Co. was used. Consequently, the isoelectric point of DyP was assayed as 3.8.
molecule,measurement,setting,value
"COc1cccc(OC)c1O [2,6-Dimethoxyphenol, 2,6-dimethoxyphenol]",Oxidation rate,DyP [1],0.29 ΔOD/min
same,Degradation by DyP (in words),DyP [1],could efficiently be degraded
"CNc1cc(S(=O)(=O)[O-])c(N)c2c1C(=O)c1ccccc1C2=O.[Na+] [AQ-2, 1-amino-4-methylamino-2-sodium-anthraquinone sulfonate]",Degradation by DyP (in words),DyP [2],excellent degradation activity
"[Ca+2] [Ca^++, calcium]",Specific activity (%),DyP [3]; metal ion 5 mM,81%
"[Cu+2] [Cu^++, copper (divalent)]",Specific activity (%),DyP [3]; metal ion 5 mM,75%
"[Fe+2] [Fe^++, iron (divalent)]",Inhibition of DyP activity,DyP [3]; ion concurrently present at 0.2 mM,50%
same,Specific activity (%),DyP [3]; metal ion 0.2 mM,50%
"COc1ccccc1O [Guaiacol, guaiacol]",Oxidation rate,DyP [1],0.29 ΔOD/min
same,Degradation by DyP (in words),DyP [1],could efficiently be degraded
"[K+] [K^+, potassium]",Specific activity (%),DyP [3]; metal ion 5 mM,81%
"[Na+] [Na^+, sodium]",Specific activity (%),DyP [3]; metal ion 5 mM,81%
Nc1c(S(=O)(=O)[O-])cc(Nc2ccc(S(=O)(=O)[O-])c(Nc3nc(Cl)nc(Nc4cccc(S(=O)(=O)[O-])c4)n3)c2)c2c1C(=O)c1ccccc1C2=O.[Na+].[Na+].[Na+] [Reactive blue 5],Degradation by DyP (in words),DyP [2],excellent degradation activity
Nc1c(S(=O)(=O)[O-])cc(Nc2cccc(S(=O)(=O)CCOS(=O)(=O)[O-])c2)c2c1C(=O)c1ccccc1C2=O.[Na+].[Na+] [Reactive blue 19],Degradation by DyP (in words),DyP [2],excellent degradation activity
"COc1ccc(CO)cc1OC [Veratryl alcohol, veratryl alcohol]",Degradation by DyP (in words),DyP [1],could never degrade; also recorded: no reaction
"[Zn+2] [Zn^++, zinc]",Specific activity (%),DyP [3]; metal ion 5 mM,69%
Reactive blue 182,Degradation by DyP (in words),DyP [2],efficiently degraded
"DyP: peroxidase derived from Geotrichum candidum Dec 1 strain (FERM BP-7033), amino acid sequence SEQ ID NO. 7 (protein, listed as Geotrichum candidum) MDLSLFVVSVAVLVGSSSHVNAAKLGARQTRTTPLLTNFPGQAPLPTLTQHTTESGANDTILPLNNIQGDILVGMKKQKERFVFFQVNDATSFKTALKTYVPQRITSAAILISDPSQQPLAFVNLGFSNTGLQALGITDDLGDAQFPDGQFADAANLGDDLSQWVAPFTGTTIHGVFLIGSDQDDFLDQFTDDISSTFGSSITQVQALSGSARPGDQAGHEHFGFLDGISQPSVTGWETTVFPGQAVVPPGIILTGRDGDTGTRPSWALDGSFMAFRHFQQKVPEFNAYTLANAIPANSAGNLTQQEGAEFLGARMFGRWKSGAPIDLAPTADDPALGADPQRNNNFDYSDTLTDETRCPFGAHVRKTNPRQDLGGPVDTFHAMRSSIPYGPETSDAELASGVTAQDRGLLFVEYQSIIGNGFRFQQINWANNANFPFSKPITPGIEPIIGQTTPRTVGGLDPLNQNETFTVPLFVIPKGGEYFFLPSISALTATIAA",Remaining enzyme activity,[4]; stored at 30° C. for 14 days,63%
same,Remaining enzyme activity,[4]; stored at 40° C. for 14 days,41%
same,Remaining enzyme activity,[4]; stored at 60° C. for 3 hours,65%
same,Isoelectric point (pI),Isoelectric focusing,3.8
